From patent publication EP3318253B1, “COMPOSITIONS COMPRISING WNT INHIBITORS FOR TREATING CANCER” (Schmidt-Wolf, Ingo, priority 2010, dated 2012)
Like-named read-outs stand apart in the source and are kept apart here.

Assays:
PBMC = test: Cell viability by DiOC6 staining, flow cytometry (normal control cells); type: cell-based, human
Experimental: PBMCs were isolated from blood of healthy donors by Ficoll-Hypaque density gradient centrifugation. Blood from buffy coats was mixed 1:2 with PBS/1% BSA (both PAA, Cölbe, Germany) and used for a ficoll gradient (LymphoPrep, PAA, Cölbe, Germany). After the centrifugation at 800 g for 30 minutes, the leukocyte layer was removed and transferred to new tubes. Subsequently, these cells were washed 3 times with PBS/1%BSA and re-suspended in fresh medium, consisting of RPMI medium (PAA, Cölbe, Germany) with 10% fetal calf serum (Invitrogen, Karlsruhe, Germany), 2.5% hepes buffer solution (PAA, Cölbe, Germany), and 1% penicillin/streptomycin (PAA, Cölbe, Germany).
(§1) Experiments were performed as reported recently.

[1] = test system: OPM-2, U266 and RPMI 8226 cells; test: Cell viability by DiOC6 staining in myeloma cell lines (mean IC50, combinations); type: cell-based, human; settings: Homo sapiens; mean of the IC50 results in OPM-2, U266 and RPMI 8226 cells
Experimental: A mean IC50 value in myeloma cells was determined using the mean of the IC50 results determined in OPM-2, U266 and RPMI 8226 cells.
(§2) • Figure 1. […] Data are shown as mean ± SD. • Figure 2. […] Data are shown as mean ± SD. • Figure 3. […] (A) Flow cytometric results. […] Finally, ECL reagent was utilized for detection. • Figure 4C. […] Finally, ECL reagent was utilized for detection. • Figure 5. Effect of EA on viability of myeloma primary cells. […] Results represent data from two separate experiments. Data are shown as mean. • Figure 6. […] (A) Tumor growth and (B) overall survival were measured. Six animals were assayed per group.
Experiments were performed as reported recently. […]

β-catenin [2] = test: Western blot, β-catenin expression in RPMI 8226 cells; type: cell-based, human; settings: RPMI 8226 cells treated for 24h
Experimental: (§3) Western blot was performed as described recently^16.
as §2
(§4) Western blot was performed as described recently.
(§5) • Figure 7. […] Data are shown as mean ± SD. • Figure 8. […] Data are shown as mean ± SD. • Figure 9. Effect of CIC on the Wnt/beta catenin pathway. (A) Flow cytometric results. […] Finally, ECL reagent was utilized for detection. • Figure 10C. […] Finally, ECL reagent was utilized for detection. • Figure 11. […] (A) Tumor growth and (B) overall survival were measured. Six animals were assayed per group. HD CIC.

β-catenin [3] = test: Western blot, β-catenin expression in KMS-18 cells; type: cell-based, human; settings: KMS-18 cells treated for 24h
Experimental: as §3, §2, §4, §5

PBL = test: Cell viability by DiOC6 staining, flow cytometry (normal control cells); settings: Homo sapiens, PBL, 72 h
Experimental: Peripheral blood mononuclear cells (PBMC) and PBL were isolated from blood samples of healthy volunteers by Ficoll density gradient centrifugation (Lymphoprep, Nycomed, Oslo, Norway).
1x10^5 Cells were cultured in 3 ml Medium in 6-well plates. […] The apoptosis assay was performed with 3'3-dihexyloxacarbocyanine iodide (DiOC6) detecting mitochondrial membrane potential in viable cells, and propidium iodide (PI) which binds to DNA in necrotic cells, measured by a fluorescence-activated cell sorter (FACS).
For FACS analysis, 500µl staining solution containing 80 nM DiOC6 in FACS buffer, consisting of deficient RPMI-medium with 0.5% bovine serum albumin (BSA), was mixed with equal volumes of the cell sample in a glass tube and incubated at 37°C for 15 min. After a washing step with PBS/BSA 1% the cells were re-suspended in 500µl PBS/BSA 1%. After addition of 5µl PI-solution (100µg/ml) the cells were analyzed by FACS. Using this assay, viable cells reveal high fluorescence intensity for DiOC6 and a low expression for PI. In contrary, apoptotic cells show a low expression for DiOC6 and also a low expression for PI (2). Finally, necrotic cells show a low expression for DiOC6 and a high expression for PI.
PBMC and PBL derived from healthy individuals were used as normal controls. 1x10^5 cells were cultured with each compound using various concentrations for three days. Then cell viability was measured by DIOC6 staining by flow cytometry. Results represent data from two to four separate experiments each.
PBMC and PBL derived from healthy individuals were used as normal controls. 1x10^5 cells were cultured with each compound using various concentrations for three days. Then cell viability was measured by DIOC6 staining by flow cytometry. Results represent data from 2 to 4 separate experiments each.
1x10^5 Cells were cultured in 3 ml Medium in 6-well plates. […] The apoptosis assay was performed with 3' 3-dihexyloxacarbocyanine iodide (DiOC6) detecting mitochondrial membrane potential in viable cells, and propidium iodide (PI) which binds to DNA in necrotic cells, measured by a fluorescence-activated cell sorter (FACS).
PBL derived from healthy individuals were used as controls. 1x10^5 cells were cultured with each compound using various concentrations for three days. Then cell viability was measured by DIOC6 staining by flow cytometry and IC 50 rates were determined. Results represent data from 2 to 4 separate experiments each.
PBMC and PBL derived from healthy individuals were used as controls. 1x10^5 cells were cultured with each compound using various concentrations for three days.

OPM-2 myeloma cells = test: Cell viability by DiOC6 staining, flow cytometry; type: cell-based, human; settings: Homo sapiens, 72 h; OPM-2; 1x10^5 cells cultured three days, various concentrations
Experimental: as §1
PBL derived from healthy individuals were used as controls. […] ND, not done.

MPC11 myeloma cells = settings: 750 µg lenalidomide/day
Experimental: All animal experiments were done at least in duplicate with groups of 6 BALB/c mice (Charles River, Sulzfeld, Germany). 5x10^5 MCP11 murine myeloma cells were injected per mouse subcutaneously into Balb/c mice. […] Overall survival and tumor growth were measured. Tumor volume was calculated as follows: volume = length x width^2 x 0,52. Animals were killed when tumor volume reached 2000 mm^3.
• Figure 1. […] 1x10^5 cells were cultured with different compounds for three days. The concentration of thalidomide was U266 160µM for U266, RPMI 20µM for RPMI, and OPM 40µM for OPM cells. Then cell viability was measured by DIOC6 staining in flow cytometry. Results represent data from three, two and five separate experiments, respectively. Separate U266 n=3, RPMI n=2, OPM n=5 experiments. Data are shown as mean ± SD. • Figure 2. […] 1x10^5 OPM cells were cultured with the different compounds for three days. The concentration of lenalidomide was 12µM for OPM and 80µM for RPMI cells. Then cell viability was measured by DIOC6 staining in flow cytometry. Results represent data from eight and five OPM n=8, RPMI n=5 separate experiments, respectively. Data are shown as mean ± SD. • Figure 3. […] (A) Flow cytometric results. […] Western Blot analysis for the detection of β-catenin in myeloma cell lines under normal conditions. The myeloma cell lines RPMI 8226, KMS-18 and U266 were analyzed according to their β-catenin expression. • Figure 4B. […] As primary antibodies purified mouse anti-β-catenin and β-actin were used at a dilution of 1:1000 and as secondary antibody served goat anti-mouse IgG-HRP at a dilution of 1:5000. Finally, ECL reagent was utilized for detection. • Figure 4C. […] As primary antibodies Purified mouse anti-β-catenin and β-actin were used at a dilution of 1:1000 and as secondary antibody served goat anti-mouse IgG-HRP at a dilution of 1:5000. Finally, ECL reagent was utilized for detection. • Figure 5. […] Results represent data from two separate experiments. Data are shown as mean. • Figure 6. […] BALB/c mice were injected with 5x10^5 MPC11 myeloma cells subcutaneously. (A) Tumor growth and (B) overall survival were measured. Six animals were assayed per group.
All animal experiments were done at least in duplicate with groups of 6 BALB/c mice (Charles River, Sulzfeld, Germany). 5x10^5 MCP11 murine myeloma cells were injected per mouse subcutaneously into Balb/c mice. Mice were treated orally with 450µg/day CIC and 750 µg lenalidomide/day, respectively. Overall survival and tumor growth were measured. Tumor volume was calculated as follows: volume = length x width^2 x 0,52. Animals were killed when tumor volume reached 2000 mm^3.
• Figure 7. […] 1x10^5 cells were cultured with different compounds for three days. The concentration of thalidomide was U266 160µM for U266, RPMI 20µM for RPMI, and OPM 40µM for OPM cells. Then cell viability was measured by DIOC6 staining in flow cytometry. Results represent data from three, two and five separate experiments, respectively. Separate U266 n=3, RPMI n=2, OPM n=5 experiments. Data are shown as mean ± SD. • Figure 8. […] 1x10^5 OPM cells were cultured with the different compounds for three days. The concentration of lenalidomide was 12µM for OPM and 80µM for RPMI cells. Then cell viability was measured by DIOC6 staining in flow cytometry. Results represent data from eight and five OPM n=8, RPMI n=5 separate experiments, respectively. Data are shown as mean ± SD. • Figure 9. […] (A) Flow cytometric results. (B) We analyzed the effect of CIC on the Wnt/beta catenin pathway by Western blot. • Figure 10A. Western Blot analysis for the detection of β-catenin in myeloma cell lines under normal conditions. The myeloma cell lines RPMI 8226, KMS-18 and U266 were analyzed according to their β-catenin expression. • Figure 10B.

primary CLL cells = settings: earlier work of the group; cited from earlier work

Q: Which results are given for `Cc1cc(C2CCCCC2)n(O)c(=O)c1` [CIC, ciclopirox olamine]?
A: IC50 (PBMC; Homo sapiens, PBMC, after 72 h): > 400 µM; IC50 (PBMC; PBMC from healthy individuals, three days): > 400 µM; effect on normal PBMC and PBL (PBMC; normal PBMC and PBL, result in words): marginal; IC50 [1]: 30 µM; β-catenin expression (β-catenin [2]): slightly decreased; β-catenin expression (β-catenin [3]): decreased; IC50 (PBL): 9 µM; IC50 (OPM-2 myeloma cells): 5 µM; Tumor growth (MPC11 myeloma cells; oral 450µg/day CIC, compared to control mice): significantly reduced; cell death in primary CLL cells (primary CLL cells): selectively induced cell death

Q: Which IC50 (PBMC; Homo sapiens, 72 h, PBMC from healthy individuals, three days) does the source give for `C=C(CC)C(=O)c1ccc(OCC(=O)O)c(Cl)c1Cl` [EA, 2-[2,3-dichloro-4-(2-methylidenebutanoyl)phenoxy] acetic acid] here?
A: > 400 µM

Q: What about the IC50 [1] of the same molecule?
A: 30 µM

Q: What about the β-catenin expression (β-catenin [2]) of the same molecule?
A: slightly increased

Q: And the β-catenin expression (β-catenin [3])?
A: increased

Q: And the IC50 (PBL)?
A: 10 µM

Q: And the IC50 (OPM-2 myeloma cells)?
A: 22 µM

Q: What about the Tumor growth (MPC11 myeloma cells; oral 450µg/day EA, compared to mice treated with lenalidomide alone, p<0.001) of the same molecule?
A: significantly reduced

Q: And the “cell death in primary CLL cells” value (primary CLL cells)?
A: selectively induced cell death
